Experimental data taken from a compilation of properties of binary mixtures (doi:10.1021/acs.jced.9b00738).

Assay: xn = mol fraction of the nth substance listed
Details: 100 kPa

CCOC(=O)OCC + CCCC[N+]1(C)CCCC1.O=S(=O)([N-]S(=O)(=O)C(F)(F)F)C(F)(F)F
x2 = 0
Details	viscosity [mPa·s]
293.15 K	0.8
298.15 K	0.75
303.15 K	0.7
308.15 K	0.65
313.15 K	0.61
318.15 K	0.58

CCCC[N+]1(C)CCCC1.O=S(=O)([N-]S(=O)(=O)C(F)(F)F)C(F)(F)F + CCOC(=O)OCC
Details	electrical conductivity [S/m]	viscosity [mPa·s]
293.15 K, x1 = 0.1506	0.443	2.76
293.15 K, x1 = 0.25	0.584	–
293.15 K, x1 = 0.2973	0.613	6.62
293.15 K, x1 = 0.349	0.608	8.69
293.15 K, x1 = 0.4	0.531	11.2
293.15 K, x1 = 0.6002	0.34	29.01
293.15 K, x1 = 0.6985	0.288	41
293.15 K, x1 = 0.8006	0.254	55.9
293.15 K, x1 = 1	0.216	98
298.15 K, x1 = 0.1001	0.372	1.65
298.15 K, x1 = 0.1506	0.494	2.49
298.15 K, x1 = 0.2	0.586	3.49
298.15 K, x1 = 0.25	0.646	–
298.15 K, x1 = 0.2973	0.701	5.86
298.15 K, x1 = 0.349	0.693	7.74
298.15 K, x1 = 0.4	0.622	9.95
298.15 K, x1 = 0.4998	0.514	15.45
298.15 K, x1 = 0.6002	0.425	24.22
298.15 K, x1 = 0.6985	0.365	34.1
298.15 K, x1 = 0.8006	0.329	46
298.15 K, x1 = 0.8934	0.3	58.6
298.15 K, x1 = 1	0.275	76.6
303.15 K, x1 = 0.1001	0.401	1.5
303.15 K, x1 = 0.1506	0.543	2.26
303.15 K, x1 = 0.2973	0.785	5.21
303.15 K, x1 = 0.349	0.782	7
303.15 K, x1 = 0.4	0.714	8.78
303.15 K, x1 = 0.4998	0.601	13.25
303.15 K, x1 = 0.6002	0.509	20.02
303.15 K, x1 = 0.6985	0.438	28.53
303.15 K, x1 = 0.8006	0.395	38
303.15 K, x1 = 0.8934	0.371	46.9
303.15 K, x1 = 1	0.34	61.6
308.15 K, x1 = 0.1001	0.436	1.35
308.15 K, x1 = 0.1506	0.591	2.03
308.15 K, x1 = 0.2	0.703	2.85
308.15 K, x1 = 0.25	0.8	–
308.15 K, x1 = 0.2973	0.876	4.79
308.15 K, x1 = 0.349	0.867	6.3
308.15 K, x1 = 0.4	0.803	7.89
308.15 K, x1 = 0.6002	0.612	17
308.15 K, x1 = 0.6985	0.534	23.82
308.15 K, x1 = 0.8006	0.485	32.02
308.15 K, x1 = 1	0.411	50.8
313.15 K, x1 = 0.1506	0.637	1.83
313.15 K, x1 = 0.2	0.766	2.56
313.15 K, x1 = 0.2973	0.968	4.33
313.15 K, x1 = 0.349	0.957	5.76
313.15 K, x1 = 0.4	0.908	7.11
313.15 K, x1 = 0.4998	0.804	10.46
313.15 K, x1 = 0.6002	0.73	14.69
313.15 K, x1 = 0.6985	0.649	19.99
313.15 K, x1 = 0.8006	0.588	26
313.15 K, x1 = 0.8934	0.535	31.7
313.15 K, x1 = 1	0.491	41.6
318.15 K, x1 = 0.1001	0.501	1.09
318.15 K, x1 = 0.1506	0.684	1.64
318.15 K, x1 = 0.2	0.83	2.28
318.15 K, x1 = 0.25	1	–
318.15 K, x1 = 0.2973	1.05	3.9
318.15 K, x1 = 0.349	1.05	5.21
318.15 K, x1 = 0.4	1	6.45
318.15 K, x1 = 0.4998	0.903	9.01
318.15 K, x1 = 0.6002	0.831	13
318.15 K, x1 = 0.6985	0.746	17.01
318.15 K, x1 = 0.8006	0.673	22
318.15 K, x1 = 0.8934	0.62	26.75
318.15 K, x1 = 1	0.581	34.6
323.15 K, x1 = 0.1506	0.742	1.46
323.15 K, x1 = 0.2	0.901	2.05
323.15 K, x1 = 0.25	1.1	–
323.15 K, x1 = 0.2973	1.14	3.52
323.15 K, x1 = 0.349	1.15	4.63
323.15 K, x1 = 0.4	1.1	5.79
323.15 K, x1 = 0.4998	1.02	8.05
323.15 K, x1 = 0.6002	0.935	11.01
323.15 K, x1 = 0.6985	0.865	14.4
323.15 K, x1 = 0.8934	0.745	22.8
323.15 K, x1 = 1	0.681	29.46
